{
  "source": "patent US20260232817A1",
  "about": "“Activatable Drug Conjugates and Therapeutic Applications Thereof” (California Institute of Technology, priority 2023, published 2026)",
  "key": {"[1]": {"assay": "Tissue rigidity assay, porcine aorta ex vivo"}, "[2]": {"tested_on": "aortic aneurysm cross-sections", "assay": "Histology and IHC staining of aneurysm cross-sections after MB PDT at AAA induction", "format": "in vivo, mice", "from_the_text": "The formation and progression of AAA can be characterized by the degradation of the extracellular matrix (ECM) and the concurrent infiltration of immune cells into the aortic wall. To assess if MB PDT affects the extracellular matrix (ECM) of the aortic aneurysms, cross-sections of the aneurysms of the above mice which have undergone AAA induction and concurrently treated with MB PDT and the respective controls were stained with Verhoeff-Van Gieson (VVG) for elastin, Massons Trichrome for collagen and CD3 antibody for T-cells and CD68 antibody for macrophages for immune cell infiltration (FIG. 2A). […] Similarly, a compensatory effect of collagen expression into the elastin layer was observed (pointed by arrows) after PDT treatment compared to both vehicle-treated positive controls and sham controls. […] To assess if T-cells and macrophage infiltration is modulated in aneurysms upon treatment with MB PDT, the aneurysm cross-sections were stained for CD3 and CD68, markers for T-cells and macrophages, respectively. CD3 and CD68 staining were reduced after MB PDT treatment compared to vehicle treated controls (FIG. 2A). […] To confirm if there is an improvement in elastin degradation, clinical scoring as per an established protocol was performed by blinded investigators. […] To assess if this benefit on elastin degradation and immune cell infiltration was due to any systemic decrease in circulating cytokine levels known to be associated with aneurysm growth, cytokines such as IL-1B, IL-6 and IL-10, serum cytokine levels were measured.\nFresh tissue was fixed in 10% neutral buffered formalin (Azer Scientific, PFNBF-90) for 24 hours before being transferred to 70% EtOH. […] After paraffin embedding, sections were cut at 5 um for staining (AML Laboratories). Sections were then stained with H&E (VWR 95057-844, 95057-848), Van Gieson (Statlab Medical Products, KTVELLT), and Masson's Trichrome (CP Lab Chemicals, TRM-500). For IHC, standard immunohistochemistry procedures for 5 μm-thick aorta sections were used. In brief, after deparaffinization, endogenous peroxidase activity was quenched by placing the slides into 3% hydrogen peroxide (H2O2) for 10 min. Sections were immersed in preheated 10 mM citric acid (VWR., Radnor, PA., USA), pH 6.0, for 30 min and cooled in cold water. Sections were then blocked in 5% goat serum (Vector Laboratories, Burlingame, Calif., USA) for 20 min before being incubated overnight at 4° C. in a solution of rabbit anti-CD3 (0.4 μg/ml; ab5690; Abcam, Cambridge, MA., USA) antibody, rabbit anti-CD31 (ERP1729; 0.4 μg/ml; ab182981; Abcam) antibody, rabbit alpha smooth muscle Actin (SMA; 0.067 μg/ml; ab5694; Abcam), rabbit anti-CD68 (ERP23917; 2.0 μg/ml; ab283667; Abcam), and rabbit anti-Interleukin-1 receptor type 1 (IL1R1; 2.0 μg/ml; PAS-98766; Thermo Fisher, Eugene, OR., USA) in PBS. The next day, the sections were exposed to the biotinylated biotinylated goat-anti-rabbit IgG secondary antibody (15 μg/ml; Vector Laboratories) in PBS for 1 h followed by avidin-biotin complex for 1 h (1:200, ABC; Vector Laboratories). The reactions were visualized with 3,3′-diaminobenzidine (Millipore-Sigma) for 10 min and counterstained with Gill's Haematoxylin (Thermo Scientific) for 30 seconds. Finally, the sections were dehydrated, cleared in xylene and cover slipped. […]\nFor quantification of elastin using Van Gieson, an elastin scoring guide was used. […]"}, "[3]": {"assay": "Ex vivo elastase degradation assay with VVG staining", "design": "species or system pigs", "conditions": "MB PDT 20 min irradiance of 150 mW/cm^2, before recombinant elastase; vs Veh only", "description": "Human and porcine aorta were thawed from −80 C to RT. Tissue was then cut into ~1 cm×1 cm squares and briefly rinsed with HBSS. Tissues were then split into two groups: control and PDT. Control tissues were kept in HBSS at RT for one hour, and treated tissues were subjected to 150 mW NIR light for 20 mins in 100 μg/ml methylene blue, with the lumen side facing the light. Then each group was further split into two groups, no elastase and elastase treatment. Treatment involved a 2 hour incubation at 37 C in 10% Porcine Pancreatic Elastase (E1250-25 MG). After treatment all tissues were briefly rinsed, dried on a paper towel, and frozen in OCT. Tissue was sectioned at 10 μm by cryotome for the cross-section and stained using Van Gieson (Statlab KTVELLT). Images were taken at 20× and 100× on a Keyence BZ-X700 Fluorescence Microscope.\nTo assess if MB PDT can protect aortic tissue from elastase-induce extracellular matrix degradation, aortic tissue were procured from pigs and subjected to MB PDT (20 min irradiance of 150 mW/cm^2) or Veh only treatment ex vivo before recombinant elastase treatment. Comparative analysis of the cross-sections of these tissues were sought to ascertain the consistency of PDT's protective effects across different biological species. […]"}, "Recombinant Tropoelastin": {"target": "T1, Recombinant Tropoelastin (Homo sapiens, UniProt P15502)", "T1 sequence (P15502 27-786)": "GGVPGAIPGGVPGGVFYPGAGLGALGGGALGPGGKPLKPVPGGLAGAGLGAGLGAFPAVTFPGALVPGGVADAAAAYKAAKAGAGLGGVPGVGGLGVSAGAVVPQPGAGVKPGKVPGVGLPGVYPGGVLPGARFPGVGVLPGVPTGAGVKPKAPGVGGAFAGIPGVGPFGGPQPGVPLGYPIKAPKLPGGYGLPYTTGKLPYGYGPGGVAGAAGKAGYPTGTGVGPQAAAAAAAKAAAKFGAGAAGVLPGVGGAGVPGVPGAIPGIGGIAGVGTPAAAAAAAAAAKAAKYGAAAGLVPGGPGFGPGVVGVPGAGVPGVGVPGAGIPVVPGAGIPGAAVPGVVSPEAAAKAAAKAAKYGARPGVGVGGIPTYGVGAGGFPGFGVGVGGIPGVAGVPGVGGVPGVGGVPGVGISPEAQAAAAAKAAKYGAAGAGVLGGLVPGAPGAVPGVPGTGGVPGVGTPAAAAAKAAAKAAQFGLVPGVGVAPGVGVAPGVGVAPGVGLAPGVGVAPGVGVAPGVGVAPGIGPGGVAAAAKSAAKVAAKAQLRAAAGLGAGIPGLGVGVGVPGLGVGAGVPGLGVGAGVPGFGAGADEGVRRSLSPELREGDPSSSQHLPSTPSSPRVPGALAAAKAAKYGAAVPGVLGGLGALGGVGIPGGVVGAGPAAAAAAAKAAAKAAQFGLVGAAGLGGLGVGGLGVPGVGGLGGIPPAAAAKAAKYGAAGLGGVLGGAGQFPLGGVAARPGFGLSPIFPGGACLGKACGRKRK", "assay": "CML levels in recombinant tropoelastin treated with MB PDT", "format": "biochemical", "conditions": "MB PDT vs untreated tropoelastin and methylene blue without light"}, "[4]": {"assay": "Tissue rigidity assay (forceps test), healthy mouse aortic tissue ex vivo", "design": "species or system mice", "conditions": "MB PDT ex vivo", "description": "(§1) (FIG. 7A). The stiffness maximized at 120 mins exposure for mouse tissue. […] To assess if this benefit of MB PDT on mechanical strength is true in a pathological setting, MB PDT treatment was done of on mouse aneurysms in vivo and the stiffness was assessed ex vivo (FIG. 7C).\n(§2) Mouse aneurysms and aortic tissue were treated with MB PDT and vehicle in vivo and ex vivo."}, "[5]": {"tested_on": "total elastin in porcine tissue", "assay": "CML modification levels of total elastin in porcine tissue", "conditions": "MB PDT vs untreated samples and pentagalloyl glucose; less than glutaraldehyde"}, "established AAAs": {"tested_on": "established AAAs", "assay": "MB PDT on pre-established and progressive aneurysms 21 days after induction surgery", "format": "in vivo, mice", "description": "The photosensitizer dye methylene blue (M291-100) was used for photodynamic therapy treatment (MB-PDT). MB-PDT was applied at two time points during the experiment. To test the effect of MB-PDT on AAA formation, MB-PDT was done directly after the PPE saline wash (PODO). To investigate the effect of MB-PDT on AAA growth, Laparotomy and MB-PDT was performed 21 days postoperatively, covering the whole aneurysm (POD21). MB-PDT involves applying 10 ul of 10:1 MB Solution in DPBS (M291-100:21-030-CV) topically to the whole aneurysm, which was carefully dissected from surrounding tissue. Gauze was placed on either side of the aneurysm to absorb excess MB. The aneurysm was then irradiated for 25 min at an irradiance of 30 mW/cm^2 and fluence of 45 J/cm^2 (660 nm LED, Thor M660L4). Throughout the course of irradiation, 5 ul of MB was applied to the aneurysm every 2.5 min to prevent the tissue from drying out. After irradiation, the MB was washed with two changes of sterile saline. For the MB only group, the total amount of MB was applied topically to the aneurysm for five minutes and washed. For the light only group, the aneurysm was irradiated for 25 min, with 5 ul of sterile saline applied every 2.5 min to prevent tissue desiccation. For POD21 positive controls, a laparotomy was performed with no additional treatment.\nAneurysm size was tracked by weekly ultrasound surveillance.\nIn certain instances, AAA often goes undiagnosed or is diagnosed late, thus it is important to know if MB PDT can not only prevent AAA formation but also reduce or arrest progressive aneurysm growth. To evaluate the efficacy of MB PDT to inhibit the progression of AAA, MB PDT was administered to mice with pre-established and progressive aneurysms 21 days after the initial aneurysm induction surgery with elastase. […] Similar to the measurements done in the study of MB PDT upon AAA induction in FIG. 1, the maximum aortic diameters were measured using ultrasound, averaging anterior-posterior (AP) and transverse (TRV) dimensions for accuracy. […]"}, "IL-1B, IL-6 and IL-10": {"tested_on": "IL-1B, IL-6 and IL-10", "assay": "Serum cytokine ELISAs after MB PDT", "format": "in vivo, mice", "conditions": "MB PDT vs controls", "from_the_text": "The formation and progression of AAA can be characterized by the degradation of the extracellular matrix (ECM) and the concurrent infiltration of immune cells into the aortic wall. To assess if MB PDT affects the extracellular matrix (ECM) of the aortic aneurysms, cross-sections of the aneurysms of the above mice which have undergone AAA induction and concurrently treated with MB PDT and the respective controls were stained with Verhoeff-Van Gieson (VVG) for elastin, Massons Trichrome for collagen and CD3 antibody for T-cells and CD68 antibody for macrophages for immune cell infiltration (FIG. 2A). […] Similarly, a compensatory effect of collagen expression into the elastin layer was observed (pointed by arrows) after PDT treatment compared to both vehicle-treated positive controls and sham controls. […] To assess if T-cells and macrophage infiltration is modulated in aneurysms upon treatment with MB PDT, the aneurysm cross-sections were stained for CD3 and CD68, markers for T-cells and macrophages, respectively. CD3 and CD68 staining were reduced after MB PDT treatment compared to vehicle treated controls (FIG. 2A). […] To assess if this benefit on elastin degradation and immune cell infiltration was due to any systemic decrease in circulating cytokine levels known to be associated with aneurysm growth, cytokines such as IL-1B, IL-6 and IL-10, serum cytokine levels were measured. […]"}, "mouse aneurysms": {"tested_on": "mouse aneurysms", "assay": "Tissue rigidity assay, mouse aneurysms treated in vivo, stiffness assessed ex vivo", "conditions": "post-MB PDT in vivo vs vehicle treatment controls", "description": "as §1, §2"}, "[6]": {"conditions": "after MB PDT vs vehicle treated controls"}},
  "data": [
    {"smiles": "CN(C)c1ccc2nc3ccc(N(C)C)cc3[s+]c2c1", "note": "[MB, methylene blue]", "values": [
      {"measurement": "stiffness benefit in porcine aorta", "setting": "[1]; MB PDT, exposure requirement higher, visually less striking", "result": "consistent"},
      {"measurement": "degradation on incubation with recombinant elastase", "setting": "[1]; porcine aorta after MB PDT, more resistance at higher light intensity (60 mW versus 120 mW)", "result": "resistant to degradation"},
      {"measurement": "elastin degradation, clinical scoring by blinded investigators", "setting": "[2]; MB PDT treated group", "result": "trend towards improvement"},
      {"measurement": "CD3 staining (T-cells)", "setting": "[2]; [6]", "result": "reduced"},
      {"measurement": "CD68 staining (macrophages)", "setting": "[2]; [6]", "result": "reduced"},
      {"measurement": "elastin degradation (VVG staining)", "setting": "[2]; [6]", "result": "reduction of elastin degradation"},
      {"measurement": "collagen degradation in the adventitia (Massons Trichrome)", "setting": "[2]; after PDT vs vehicle treated controls and sham mice", "result": "less collagen degradation"},
      {"measurement": "resistance to elastase-induced ECM degradation (VVG elastin staining)", "setting": "[3]", "result": "significant resistance"},
      {"measurement": "CML levels", "setting": "Recombinant Tropoelastin", "result": "significant increase"},
      {"measurement": "light exposure at which stiffness maximized", "setting": "[4]", "result": 120, "unit": "min"},
      {"measurement": "vascular stiffness (forceps test)", "setting": "[4]", "result": "increased with duration of light exposure"},
      {"measurement": "CML modification levels", "setting": "[5]", "result": "significant increase"},
      {"measurement": "aneurysm diameter on week 9", "setting": "established AAAs; MB PDT on day 21, vs vehicle treated group", "result": "decrease"},
      {"measurement": "enlargement of established AAAs (weekly ultrasound)", "setting": "established AAAs; MB PDT on day 21 post-induction, vs vehicle-treated controls", "result": "significantly reduced"},
      {"measurement": "morphological images and micrometric measurements of AAAs", "setting": "established AAAs; treated vs vehicle", "result": "marked differences"},
      {"measurement": "serum cytokine levels (IL-1B, IL-6, IL-10)", "setting": "IL-1B, IL-6 and IL-10", "result": "No significant differences"},
      {"measurement": "stiffness of the aneurysm", "setting": "mouse aneurysms", "result": "clear improvement"}
    ]}
  ]
}
